This assay deals with saliva bacteria (facultative anaerobic oral bacteria collected from saliva). Briefly: In vitro killing of saliva bacteria. To be noted: 0.5 h; chlorhexidine 0.12%, positive control; data not shown; read-out: log reduction in facultative anaerobic saliva organisms. The format is cell-based. The protocol: The killing assay of saliva bacteria was done according to procedures established by Helmerhorst et al. (1999). Unstimulated saliva was collected from four healthy individuals who had refrained from eating for at least 2 hours. The study was approved by the Institutional Review Board of the Walter Reed Army Institute of Research and informed consent and sample donation consent were obtained from all volunteers. Pooled saliva was initially spun at 500 r.p.m. in an Eppendorf centrifuge (model 5810R) for 10 min at 4° C. to remove epithelial cells and mucus. Saliva bacteria were collected by spinning the supernatant at 4000 r.p.m. for 15 min at 4° C. The pellet was washed three times in 10 mM potassium phosphate buffer (PPB) and suspended in the same buffer to give approximately 1.0×10^7 cells ml^−1. Bacterial suspension (250 μl) was mixed with 250 μl peptide to obtain final peptide concentrations of 12.5, 25, 50, 100 and 200 μg ml^−1. After incubation of the mixture at 37° C. for 30 min, cells were spun down to remove KSL, washed once in PBS having a pH of 7.4 and suspended in PBS before spiral-plating 50 μl of the treated and untreated cells in different dilutions on BAP. The negative control was exposed to buffer only. Saliva bacteria exposed to 0.12% aqueous chlorhexidine served as positive controls. […]

Structures are written as SMILES.

We go through one compound from patent publication US7494980B2, “Antimicrobial peptide and methods of use thereof” (The United States of America as represented by the …, priority 2003, dated 2009).

As for `[H]/N=C(\N/C(=N/[H])NCCCCCCNC(=N)NC(=N)Nc1ccc(Cl)cc1)Nc1ccc(Cl)cc1` [chlorhexidine, reference compound], the log reduction at 0.12 % is greater than 3.
